The source of these data is patent US20170128448A1, “COMBINATION THERAPY FOR CANCER” (Celgene Corporation, priority 2014, published 2017).

Data set [1] concerns follicular lymphoma cell lines (RL and DoHH2). Description: 8-day cytotoxicity assay (cell titer glo), follicular lymphoma lines. The data set is classed as cell-based. The settings on record: Compound A 200 nM for 8 days + obinutuzumab (GA101) 0 to 10,000 ng/mL last 24 hours; FL lines. The method, then: (§1) In vitro combination efficacy studies were performed with Compound A and obinutuzumab (GA101). Two follicular (RL and DoHH2) and two diffuse large B cell lymphoma (DLBCL) (Oci-Ly10, WSU-DLCL2) cell lines were treated with either single agent Compound A (200 nM), single agent obinutuzumab (0 to 10,000 ng/mL) or in combination in 8-day cytotoxicity assays (cell titer glo). In both the single agent and combination studies, the cells were treated with Compound A for 8 days and with obinutuzumab treatment on the last 24 hours in the combination studies.
For orientation: ATP-based viability assays read luminescence as a measure of living cells.

In data set [2] the test system is WSU-DLCL2 lymphoma xenograft. Description: WSU-DLCL2 lymphoma xenograft model. The data set is classed as in vivo. The settings on record: for complete regressions, % of animals: WSU-DLCL2. The method, then:
(§2) In combination with rituximab, Compound A at 3 and 30 mg/kg induced complete regressions in 60% and 90% of animals, respectively.

Data set [3] can be described thus: First-in-human study of Compound A, Part A dose escalation. The data set is classed as in vivo. To be noted: for dose limiting toxicities (DLT) observed: in vivo. The procedure: (§3) The first-in-human study of Compound A is being conducted in a broad tumor population including diverse solid tumors, lymphoma and MM. Part A of the study used a Compound A starting dose of 0.5 mg QD on a continuous dosing schedule. Using allometric scaling, this dose represented a dose ˜20-fold below the highest non-severely toxic dose (HNSTD) in primates based on preclinical toxicology studies. Part A dose escalation proceeded in 0.5 mg increments (0.5, 1.0, 1.5, 2.0, 2.5, 3.0, 3.5 mg) and established the nontolerated dose (NTD) at 3.5 mg QD and the MTD at 3.0 mg QD. […] In Part B, parallel expansion cohorts (14 to 20 subjects each) in 4 tumor indications (MM, NHL, HCC and gliomas) were subsequently enrolled at a dose of 3.0 mg QD. Given that subjects with CLL may be more sensitive to the side effects of immunomodulatory agents (IMiDs®) and other cereblon-binding agents, and the clinical safety, PK and pharmacodynamics data observed with Compound A to date, a lower Compound A starting dose of 0.25 mg QD was used in a CLL population.

The test system of data set [4] is DoHH2 lymphoma xenograft. Description: DoHH2 lymphoma xenograft model. The data set is classed as in vivo. The method, then:
as §2

For data set [5], the system named is DLBCL cell lines (Oci-Ly10, WSU-DLCL2). The data set is described as follows: 8-day cytotoxicity assay (cell titer glo), DLBCL lines. The data set is classed as cell-based. The settings on record: Compound A 200 nM for 8 days + obinutuzumab (GA101) 0 to 10,000 ng/mL last 24 hours. The method, then: as §1
For data set [6] the following is noted: in vivo. The method, then:
as §3

The subject of data set [7] is IL-10. The data set is described as follows: Cytokine stimulation in LPS-stimulated hPBMC and human whole blood: IL-10. The data set is classed as cell-based. An excerpt:
(§4) TNF-α is an inflammatory cytokine produced by macrophages and monocytes during acute inflammation. TNF-α is responsible for a diverse range of signaling events within cells. TNF-α may play a pathological role in cancer. Without being limited by theory, one of the biological effects exerted by Compound A is the reduction of synthesis of TNF-α. Compound A enhances the degradation of TNF-α mRNA.

Data set [8] deals with TNF-α. The data set is described as follows: Cytokine inhibition in LPS-stimulated hPBMC and human whole blood: TNF-α. The data set is classed as cell-based.
Source text: as §4

Data set [9] concerns human CLL cells. Description: Primary cultures of human CLL cells. The data set is classed as cell-based. To be noted: in 70% of samples tested. The method, then:
(§5) A second consideration for the starting dose of Compound A is based on the relative in vitro potency between Compound A and lenalidomide and the relative human safety and tolerability of lenalidomide in CLL. […] Clinical exploration of lenalidomide in CLL has established 5 mg to be a tolerable starting dose.

Data set [10] has as its system T cells. The data set is described as follows: T cell co-stimulation. The data set is classed as cell-based. To be noted: under appropriate conditions.
The subject of data set [11] is human NK cell. The data set is described as follows: NK cell IFN-γ production in response to immobilized Ig-G and IL-2 stimulation. The data set is classed as cell-based. The settings on record: read-out: EC50, enhancement of NK cell IFN-γ production. An excerpt: Without being bound by a particular theory, Compound A is believed to enhance the human NK cell killing function, antibody-dependent cellular cytotoxicity (ADCC), in rituximab coated lymphoma cell lines.

Data set [12] deals with IL-1β. The data set is described as follows: Cytokine inhibition in LPS-stimulated hPBMC and human whole blood: IL-1β. The data set is classed as cell-based.
Source text: as §4

The test system of data set [13] is panel of lymphoma and MM cell lines. The data set is described as follows: Immunomodulatory and anti-proliferative activity against a panel of cell lines. The data set is classed as cell-based. The procedure: as §5
Data set [14] relates to DLBCL cell lines. To be noted: lenalidomide with ibrutinib (Yang, 2012); cited from earlier work.
The conditions of data set [15]: cited from earlier work.
[16] abbreviates: continuous dosing, solid tumors, lymphoma and MM.

Broadly, the EC50 is the concentration at which the effect is half-maximal. Take `Cc1nc2cccc(N)c2c(=O)n1C1CCC(=O)NC1=O` (centres unmarked) [Compound A, 3-(5-amino-2-methyl-4-oxo-4H-quinazolin-3-yl)-piperidine-2,6-dione]: the “combination effect on cytotoxicity” value is “synergistic” in [1] and “additive” in data set [5]. Also, the “complete regressions, % of animals” value in data set [2] (Compound A 3 mg/kg in combination with rituximab) was 60%; in [2] (Compound A 30 mg/kg in combination with rituximab) it was 90%. In [2] (WSU-DLCL2 study, Compound A single agent), the “effect as single agent” value is “minimal effects”. In addition, the “tumor growth inhibition, administered with rituximab” value in data set [2] (WSU-DLCL2 xenograft, administered with rituximab) is listed as “dose-dependent tumor growth inhibition”. This compound also displayed an MTD in data set [3] (setting [16]) of 3.0 mg QD. The “nontolerated dose (NTD)” value in data set [3] (setting [16]) turned out to be 3.5 mg QD. For the same compound, the “dose limiting toxicities (DLT) observed” value in data set [3] (human) is “Grade 3 fever and fatigue and Grade 3 muscle weakness”; in [3], “No DLTs”. For the same compound, the “tumor growth inhibition, single agent” value in data set [4] (Compound A single agent at 3 and 30 mg/kg) is on record as “modest dose-dependent tumor growth inhibition”. Also, the “tumor growth delay, combination with rituximab” value in [4] (in combination with rituximab) was “significantly and dose-dependently delayed tumor growth”. Also, in data set [6], the “starting dose relative to highest non-severely toxic dose (HNSTD) in primates, fold below” value is listed as roughly 20 fold. For the same compound, in data set [7], the “effect on IL-10” value was “stimulates”. For the same compound, in data set [8], the “inhibition of TNF-α” value is given as “markedly inhibits”. The “potency relative to lenalidomide” value in [9] is listed as roughly 5 fold. Besides, the “T cell co-stimulation, cell proliferation” value in data set [10] is reported as “increased cell proliferation in a dose dependent manner”. Further, in [11], the EC50 was 1.5 nM. In addition, the “inhibition of IL-1β” value in data set [12] is “potently inhibits”. Also, in data set [13], the “potency relative to lenalidomide, immunomodulatory and anti-proliferative activity” value was roughly 10 fold.
On to `C=CC(=O)N1CCC[C@@H](n2nc(-c3ccc(Oc4ccccc4)cc3)c3c(N)ncnc32)C1` [ibrutinib], for which, in data set [14], the “combination effect of lenalidomide and ibrutinib on killing of DLBCL cell lines” value is “synergistically kill”.
In the case of `Nc1cccc2c1CN(C1CCC(=O)NC1=O)C2=O` (centres unmarked) [lenalidomide], the “effect of intermittent dosing schedule in CLL” value in data set [15] (21 of 28 day cycles, during the 7 day drug holidays (Chen, 2011)) is “rebound lymphocytosis”. Besides, in [15] (CLL patients), the “tolerable starting dose in CLL” value is 5 mg. In data set [14], the “combination effect of lenalidomide and ibrutinib on killing of DLBCL cell lines” value is “synergistically kill”.
For “GA101: humanized type II monoclonal antibody that binds to CD20 and triggers destruction of B-cells”, the “combination effect on cytotoxicity” value is “synergistic” in data set [1] and “additive” in [5].
